Laboratory results from paper PMC9563435, “Comparison of Different Clinical Chemotherapeutical Agents’ Toxicity and Cell Response on Mesenchymal Stem Cells and Cancer Cells” (Cells, 2022).

How the values were obtained:
Type in all cases: cell-based, human
Ad-MSC 3 cells [1] = experiment: ROS induction (DCFH-DA), Ad-MSC 3; conditions: 1 h, different concentrations incl. higher
Experimental: (§1) Ad-MSC 3 and A431 cells were seeded in a 96-well tissue culture plate and incubated for 24 h as described above. Cells were washed twice with HBSS and incubated in 100 µL of DCFH-DA dye (R252-10, Dojindo) according to the manufacturer’s instructions. Cells were incubated for 30 min at 37 °C and washed twice with HBSS. […] Supernatant was removed, and the cells were washed with HBSS before imaging with the JuLI^TM Stage Cell History Recorder (NanoEnTek).

A431-mCh cells [2] = experiment: γ-H2AX staining of DNA double-stranded breaks, A431-mCh
Experimental: (§2) Ad-MSC-GFP 3 cells were seeded into glass-bottomed chamber slides (ibidi, Germany, Grafelfing, Germany) at 1 × 10^4/well and A431-mCh at 1.6 × 10^4/well density. […] Cells in all chambers were fixed with 4% PFA for 15 min and washed twice with PBS. Blocking solution (0.5% BSA-PBS, 0.1% TritonX-100, 5% goat serum, and 1% fish gelatin) was used for 1 h. γ-H2A.X primary antibody (MA1-2022, Invitrogen, United States) was diluted in blocking solution at 1:500 concentration and incubated overnight at 4 °C. Afterwards, the cells were washed with PBS twice and goat anti-mouse A633 secondary antibody (A21052, abcam, Cambridge, UK) was diluted at 1:250 concentration in blocking solution. Nuclei was stained with a Hoechst-33342 (23491-52-3, Dojindo, Kumamoto, Japan) at 1:1000 concentration.
(§3) To quantify DNA damage based on immunofluorescence against γ-H2AX, a semi-automated image analysis pipeline was set up using CellProfiler v4.1.3 [10]. First, images showing DAPI-stained nuclei were pre-processed by intensity normalization and Gaussian filtering (ϭ = 20 px) to suppress noise and remove artifacts caused by debris. Nuclei candidates were identified by threshold-based segmentation; false candidates were removed from the analysis manually. Using the remaining nuclei regions as masks, pixel intensities were measured on the γ-H2AX channel, thus, excluding non-nuclei signals.

A431 cells = experiment: ROS induction (DCFH-DA), A431; conditions: 1 h, different concentrations incl. higher
Experimental: as §1

A431-mCh cells [3] = experiment: Live cell imaging, confluency, A431-mCh; conditions: 120 h
Experimental: (§4) JuLI™ Stage Cell History Recorder was used to monitor a five-day cytotoxicity assay on Ad-MSC-GFP 3 and A431-mCh cell lines. […] Images were taken every 105 min for 120 h at 10× objective magnification. Live cell microscopy studies were evaluated using the “Growth curve” function of the JuLI STAT image analysis software (v2.0.1.0).

Ad-MSC 3 cells [4] = experiment: Senescence β-galactosidase staining, Ad-MSC 3; conditions: 4 µM; 5 days treatment then 7 days drug-free
Experimental: At day 5, media was removed and replaced with 200 µL of completed DMEM-F12 for 7 days. The Senescence β-Galactosidase Staining Kit (9860S, Cell Signaling Technology, Danvers, MA, USA) was used to detect senescent cells. Cells were fixed with fixing solution, washed with PBS, stained with X-gal solution overnight at 37 °C without CO2, and coated with 70% glycerol.

Ad-MSC 3 cells [5] = experiment: Apoptosis assay (Annexin V / TO-PRO-3 flow cytometry), Ad-MSC 3
Experimental: Apoptosis detection was based on the Annexin-V molecule binding to phosphatidylserine membrane molecules. Two cell lines were used to study apoptosis: Ad-MSC 3 cells were plated in a 5 × 10^4 cells/well concentration, while 4 × 10^4/well A431-mCh were seeded into each well in a 12-well tissue culture plate. […] At day 5, cells were trypsinized and centrifuged, while the supernatant was also collected and combined with the detached cells to include all already dead cells. Cells were washed twice with 500 µL of 1% BSA-PBS (bovine serum albumin dissolved in PBS, A8022, Sigma-Aldrich, St. Louis, MO, USA) solution and centrifuged at 400× G for 4 min. Cells were resuspended in 100 µL of 1× Annexin Binding Buffer (422201, Biolegend, San Diego, CA, USA), and 3 µL of Annexin V-Pacific Blue (A35122, Biolegend, San Diego, CA, USA) and 1 µL of TO-PRO-3 (R37170, Invitrogen, Waltham, MA, USA) were added to each sample. After 15 min of incubation, labeled and non-labeled samples were diluted 5-fold with 1× Annexin Binding Buffer and analyzed by Attune™ NxT flow cytometer.

Ad-MSC-GFP 3 cells [6] = experiment: γ-H2AX staining of DNA double-stranded breaks, Ad-MSC-GFP 3
Experimental: as §2, §3

Ad-MSC-GFP 3 cells [7] = experiment: Cytotoxicity / cell viability assay (PrestoBlue) on Ad-MSC-GFP 3; conditions: Ad-MSC-GFP 3 / Ad-MSC 3, 5 days
Experimental: (§5) Cells were seeded in a 96-well tissue culture plate in 100 µL of medium. Ad-MSC-GFP 1, iAd-MSC-GFP 1, Ad-MSC-GFP 2, Ad-MSC-GFP 3, BM-MSC, and HFF were seeded at 5 × 10^3/100 µL/well density and A431-mCh, MES-SA-mCh, and MCF-7-GFP at 4 × 10^3 cells/100 µL/well concentration in DMEM-F12 media. Different initial cell numbers were used due to different proliferation rates of different cell types. Cells were allowed to attach overnight at 37 °C and the day after were treated with the drugs using the indicated concentrations in 100 µL. Cell viability was measured by using PrestoBlue™ Cell Viability Reagent (A13232, Invitrogen, Waltham, MA, USA). To address metabolic differences between cancer cells and MSCs, the assay was optimized for each cell line, cells were incubated with 5 or 12.5% PrestoBlue™ Cell Viability Reagent diluted in PBS at 37 °C/5% CO2 for 1–1.5 h 5 days after the treatment. The fluorescence signal was measured by an EnSpire (Perkin Elmer, Waltham, MA, USA) fluorometer at 555 nm (excitation)/585 nm (emission) wavelength.
(§6) After the incubation period, the relative fluorescence data was measured. The data was normalized with the fluorescence of blank samples (cell culture media). […] In these cases, IC50 was calculated from the line connecting the measurement points. For repeated measurements, average and standard deviation was calculated based on the logarithm of the IC50 values.

Ad-MSC-GFP 3 cells [8] = experiment: Live cell imaging, confluency, Ad-MSC-GFP 3; conditions: 120 h live cell imaging
Experimental: as §4

[9] = system: 6 MSCs and 3 cancer cell lines; experiment: Cytotoxicity / cell viability assay (PrestoBlue), panel of MSCs and cancer cell lines; conditions: 5 days treatment, IC50 comparison
Experimental: as §5
as §6, with “media). A sigmoidal dose–response curve was fitted to the normalized measurement data and the logarithm of the concentration using the least square method. An inhibitory concentration of 50% (IC50 and log10) was interpolated from the fitted graph.” for “media).”
To compare the mean IC50 values of six mesenchymal stem cell lines (Group-1) and three cancer cell lines (Group-2), first an F-test was performed to check equal variances between the groups, then two-sample unpaired t-tests were performed to calculate significance using Microsoft® Excel® 2016 (16.0.4266.1001).

[10] = 120 h, IC50 concentrations of A431 (2 µM cisplatin, 0.1 µM doxorubicin, 30 µM nutlin-3)

For `N.N.[Cl][Pt][Cl]` [cisplatin], which ROS induction (Ad-MSC 3 cells [1]) is on record?
Its ROS induction is “did not induce ROS”.

What about the “effect on A431 cells in γ-H2AX experiment” value (A431-mCh cells [2]; 10 µM, 5 days) of the same compound?
The value was “almost completely eradicating A431 cells”.

What about the “DNA damage (γ-H2AX)” value (A431-mCh cells [2]; [10]) of the same compound?
The value was “massive DNA damage”.

What about the ROS induction (A431 cells) of the same compound?
The ROS induction was “did not induce ROS”.

What about the “number of viable colonies in live cell imaging” value (A431-mCh cells [3]; IC50 of A431-mCh and 10-fold higher concentration) of the same compound?
The value was “significantly reduced the number of viable colonies”.

And the “growth kinetics in live cell imaging” value (A431-mCh cells [3]; concentration 10-fold lower than A431-mCh IC50)?
The value was “did not alter growth kinetics”.

What about the “SA-β-Gal staining (senescence)” value (Ad-MSC 3 cells [4]) of the same compound?
Its value is “slightly increased SA-ß-Gal staining”.

And the “apoptosis (in words)” value (Ad-MSC 3 cells [5]; 10 µM (IC50 level of Ad-MSC-GFP 3))?
Its value is “notable amounts of late apoptosic cells”.

What about the “apoptosis compared to untreated controls (in words)” value (Ad-MSC 3 cells [5]; 120 h) of the same compound?
Its value is “virtually no apoptosis”.

What about the “number of double-stranded breaks (γ-H2AX)” value (Ad-MSC-GFP 3 cells [6]; 10 µM, 5 days) of the same compound?
The value was “significantly increased the number of double-stranded breaks”.

What about the “DNA double-stranded breaks (γ-H2AX)” value (Ad-MSC-GFP 3 cells [6]; [10]) of the same compound?
The value was “no DNA break was detected”.

And the IC50 (Ad-MSC-GFP 3 cells [7])?
The IC50 was 10 µM.

What about the “concentration at which significant drops in confluency were seen, as multiple of Ad-MSC-GFP 3 IC50” value (Ad-MSC-GFP 3 cells [8]) of the same compound?
Its value is 2 fold.

And the “drug sensitivity of MSCs compared with cancer cells (in words)” value [9]?
The value was “required significantly higher concentrations to kill MSCs than cancer cells”.
